From US6489514B1, “(-)-Secoisolariciresinol as an antioxidant obtained from a new natural source namely stereospermum personatum” (Council of Scientific and Industrial Research, priority 2001, dated 2002)

Legend:
[1] = Japanese Pat No. JP02,101,011; cited from earlier work
SHBG = target: T1, SHBG (Homo sapiens, UniProt P04278); conditions: Z. Naturforsch, C. Biosc. 997,52,834-843; cited from earlier work
T1 sequence (P04278 30-402): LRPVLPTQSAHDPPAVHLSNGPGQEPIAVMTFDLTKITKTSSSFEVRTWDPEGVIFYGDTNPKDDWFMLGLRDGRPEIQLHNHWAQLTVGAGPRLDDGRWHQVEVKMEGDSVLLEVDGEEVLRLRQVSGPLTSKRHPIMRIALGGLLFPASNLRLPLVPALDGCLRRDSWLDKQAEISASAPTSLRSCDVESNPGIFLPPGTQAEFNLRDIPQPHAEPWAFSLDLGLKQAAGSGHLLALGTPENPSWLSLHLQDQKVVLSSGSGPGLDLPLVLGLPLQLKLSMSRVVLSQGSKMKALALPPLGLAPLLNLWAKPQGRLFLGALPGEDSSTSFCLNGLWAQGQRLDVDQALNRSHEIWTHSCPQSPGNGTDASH

[2] = In vitro free radical scavenging antioxidant potency (DPPH); format: biochemical; conditions: 500 μM DPPH in ethanol, tris-HCl buffer pH 7.4, 45 minutes in dark, absorbency at 517 nm, triplicate
Method: Antioxidant activity of the compounds was tested for its capacity/potency to scavenge most widely used free radical, 1,1-diphenyl-2-picryl hyrazyl radical (DPPH). […] 200 μl of test compounds were reconstituted to 1 ml in tris-HCl buffer (pH 7.4). […] After incubation for 45 minutes in dark, the absorbency at 517 nm was recorder. Percent radical scavenging activity was calculated accordingly. All the readings were taken in triplicate.

[3] = Japanese Pat. No. JP0131J17; cited from earlier work

Structure (SMILES) | Activity: cardiotonic [1] [Cardiotonic] | Activity: binding to SHBG (SHBG) | 50% Radical scavenging concentration [2] [µg/mL] | Activity: antitumor [3] [Antitumor agent]
COc1cc(CC(CO)C(CO)Cc2ccc(O)c(OC)c2)ccc1O (single isomer, unassigned; (-)) [(−)-Secoisolariciresinol, 2,3Bis-[4-hydroxy-3-(methoxyphenyl)methyl]-1,4-butanediol] | 2. | 3. Binding to SHBG | 13.72 | 1.
Cc1c(C)c2c(c(C)c1O)CCC(C)(CCCC(C)CCCC(C)CCCC(C)C)O2 (stereo not drawn) [DL α- Tocopherol, reference compound] | – | – | 47.80 | –
